Experimental data: ChEMBL document CHEMBL3044761, “Lethal Activity of a Trehalase Inhibitor, Validoxylamine A, against Mamestra brassicae and Spodoptera litura” (J Pestic Sci, 1994)

Columns and labels:
Mamestra brassicae [1] = assay: Insecticidal activity against last-instar Mamestra brassicae larvae assessed as larval-pupal intermediate injected at 50 ug/larvae (reference value: 0%); type: functional
Spodoptera litura [2] = assay: Insecticidal activity against last-instar Spodoptera litura larvae assessed as larval pupal intermediate injected at 0.4 ug/larvae (reference value: […]); type: functional
Spodoptera litura [3] = assay: Insecticidal activity against last-instar Spodoptera litura larvae assessed as normal pupae injected at 10 ug/larvae (reference value: 100%); type: functional
Spodoptera litura [4] = assay: Insecticidal activity against last-instar Spodoptera litura larvae assessed as partial pupation injected at 50 ug/larvae (reference value: 100%); type: functional
Mamestra brassicae [5] = assay: Insecticidal activity against last-instar Mamestra brassicae larvae assessed as partial pupation injected at 5 ug/larvae (reference value: 10%); type: functional
Mamestra brassicae [6] = assay: Insecticidal activity against last-instar Mamestra brassicae larvae assessed as normal pupae injected at 5 ug/larvae (reference value: 90%); type: functional
Spodoptera litura [7] = assay: Insecticidal activity against last-instar Spodoptera litura larvae assessed as normal pupae injected at 0.4 ug/larvae (reference value: 100%); type: functional
Mamestra brassicae [8] = assay: Insecticidal activity against last-instar Mamestra brassicae larvae assessed as mortality; type: functional
Mamestra brassicae [9] = assay: Insecticidal activity against last-instar Mamestra brassicae larvae assessed as partial pupation injected at 50 ug/larvae (reference value: 10%); type: functional
[10] = Inhibition of Rhizoctonia solani alpha-glucosidase; settings: read-out: I50
Spodoptera litura [11] = assay: Insecticidal activity against last-instar Spodoptera litura larvae assessed as larval pupal intermediate injected at 2 ug/larvae (reference value: […]); type: functional
Mamestra brassicae [12] = assay: Insecticidal activity against last-instar Mamestra brassicae larvae assessed as wing pad separation injected at 50 ug/larvae (reference value: 0%); type: functional
Trehalase = molecular target: T1, Trehalase (Rattus norvegicus, UniProt O70282); assay: Inhibition of Rattus norvegicus (rat) trehalase; settings: read-out: I50
T1 sequence (O70282 whole entry): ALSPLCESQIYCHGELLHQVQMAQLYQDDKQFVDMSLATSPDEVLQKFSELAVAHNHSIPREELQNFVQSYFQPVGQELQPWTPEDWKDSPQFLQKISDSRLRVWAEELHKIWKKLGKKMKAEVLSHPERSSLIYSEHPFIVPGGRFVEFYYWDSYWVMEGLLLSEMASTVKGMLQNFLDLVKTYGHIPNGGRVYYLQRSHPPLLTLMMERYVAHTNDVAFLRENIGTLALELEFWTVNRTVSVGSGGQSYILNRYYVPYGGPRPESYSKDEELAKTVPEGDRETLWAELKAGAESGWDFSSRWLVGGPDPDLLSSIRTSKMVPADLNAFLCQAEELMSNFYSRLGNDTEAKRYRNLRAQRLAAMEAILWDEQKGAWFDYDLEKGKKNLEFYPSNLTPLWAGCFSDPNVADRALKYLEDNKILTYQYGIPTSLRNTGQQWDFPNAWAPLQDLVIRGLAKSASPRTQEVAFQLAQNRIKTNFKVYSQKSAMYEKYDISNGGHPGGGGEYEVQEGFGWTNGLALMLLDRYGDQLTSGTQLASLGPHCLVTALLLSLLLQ

Spodoptera litura [13] = assay: Insecticidal activity against last-instar Spodoptera litura larvae assessed as partial pupation injected at 0.4 ug/larvae (reference value: […]); type: functional
Spodoptera litura [14] = assay: Insecticidal activity against last-instar Spodoptera litura larvae assessed as partial pupation injected at 10 ug/larvae (reference value: […]); type: functional
Mamestra brassicae [15] = assay: Insecticidal activity against last-instar Mamestra brassicae larvae assessed as partial pupation injected at 10 ug/larvae (reference value: 10%); type: functional
Mamestra brassicae [16] = assay: Insecticidal activity against last-instar Mamestra brassicae larvae assessed as normal pupae injected at 10 ug/larvae (reference value: 90%); type: functional
Spodoptera litura [17] = assay: Insecticidal activity against last-instar Spodoptera litura larvae assessed as normal pupae injected at 2 ug/larvae (reference value: 100%); type: functional
Spodoptera litura [18] = assay: Insecticidal activity against last-instar Spodoptera litura larvae assessed as normal pupae at 50 ug/larvae topical application (reference value: 100%); type: functional
Mamestra brassicae [19] = assay: Insecticidal activity against last-instar Mamestra brassicae larvae assessed as wing pad separation at 50 ug/larvae topical application (reference value: 0%); type: functional
Mamestra brassicae [20] = assay: Insecticidal activity against last-instar Mamestra brassicae larvae assessed as wing pad separation injected at 1 ug/larvae (reference value: 0%); type: functional
Spodoptera litura [21] = assay: Insecticidal activity against last-instar Spodoptera litura larvae assessed as larval pupal intermediate injected at 10 ug/larvae (reference value: […]); type: functional
Mamestra brassicae [22] = assay: Insecticidal activity against last-instar Mamestra brassicae larvae assessed as larval-pupal intermediate injected at 5 ug/larvae (reference value: 0%); type: functional
Spodoptera litura [23] = assay: Insecticidal activity against last-instar Spodoptera litura larvae assessed as normal pupae injected at 50 ug/larvae (reference value: 100%); type: functional
Spodoptera litura [24] = assay: Insecticidal activity against last-instar Spodoptera litura larvae assessed as larval pupal intermediate injected at 50 ug/larvae (reference value: […]); type: functional
Spodoptera litura [25] = assay: Insecticidal activity against last-instar Spodoptera litura larvae assessed as wing pad separation injected at 50 ug/larvae (reference value: 100%); type: functional
Spodoptera litura [26] = assay: Insecticidal activity against last-instar Spodoptera litura larvae assessed as mortality; type: functional
Chitinase A1 = molecular target: T2, Chitinase A1 (Thanatephorus cucumeris (strain AG1-IB / isolate 7/3/14) (Lettucebottom rot fungus) (Rhizoctonia solani), UniProt M5BZV0); assay: Inhibition of Rhizoctonia solani chitinase; settings: read-out: I50
T2 sequence (M5BZV0 whole entry): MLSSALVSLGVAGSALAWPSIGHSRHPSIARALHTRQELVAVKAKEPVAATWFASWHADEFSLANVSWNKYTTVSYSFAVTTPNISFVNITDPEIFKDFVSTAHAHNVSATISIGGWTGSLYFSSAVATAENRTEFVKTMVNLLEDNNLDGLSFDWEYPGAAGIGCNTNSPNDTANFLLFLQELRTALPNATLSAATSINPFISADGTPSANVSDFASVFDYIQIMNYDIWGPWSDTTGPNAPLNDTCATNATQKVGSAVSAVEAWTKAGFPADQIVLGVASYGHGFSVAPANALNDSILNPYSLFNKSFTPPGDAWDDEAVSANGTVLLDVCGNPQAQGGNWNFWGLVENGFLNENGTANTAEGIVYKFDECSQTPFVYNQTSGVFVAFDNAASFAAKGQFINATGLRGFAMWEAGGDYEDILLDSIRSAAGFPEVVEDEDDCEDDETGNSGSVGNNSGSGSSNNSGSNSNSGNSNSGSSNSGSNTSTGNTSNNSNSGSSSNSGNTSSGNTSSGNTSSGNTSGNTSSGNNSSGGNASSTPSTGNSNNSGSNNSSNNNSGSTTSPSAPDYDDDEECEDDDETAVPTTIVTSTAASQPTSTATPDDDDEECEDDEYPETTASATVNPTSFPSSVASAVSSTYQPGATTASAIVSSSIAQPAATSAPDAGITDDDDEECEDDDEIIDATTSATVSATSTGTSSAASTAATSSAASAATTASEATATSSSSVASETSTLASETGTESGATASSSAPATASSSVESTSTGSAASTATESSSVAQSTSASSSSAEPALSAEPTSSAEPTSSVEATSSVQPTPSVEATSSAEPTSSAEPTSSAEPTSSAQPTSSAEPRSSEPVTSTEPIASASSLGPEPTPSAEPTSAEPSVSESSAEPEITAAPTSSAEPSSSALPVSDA

Question: Which Activity (Mamestra brassicae [1]) does the source give for `OCC1=C[C@H](N[C@H]2C[C@H](CO)[C@@H](O)[C@H](O)[C@H]2O)[C@H](O)[C@@H](O)[C@@H]1O` [VALIDOXYLAMINE A] here?
Answer: The Activity was 100%.

Question: And the Activity (Spodoptera litura [2])?
Answer: The Activity was 0%.

Question: And the Activity (Spodoptera litura [3])?
Answer: The Activity was 20%.

Question: And the Activity (Spodoptera litura [4])?
Answer: Its Activity is 30%.

Question: What about the Activity (Mamestra brassicae [5]) of the same compound?
Answer: Its Activity is 27%.

Question: And the Activity (Mamestra brassicae [6])?
Answer: The Activity was 7%.

Question: What about the Activity (Spodoptera litura [7]) of the same compound?
Answer: The Activity was 85%.

Question: What about the LD50 (Mamestra brassicae [8]) of the same compound?
Answer: The LD50 was less than 1 µg.

Question: What about the Activity (Mamestra brassicae [9]) of the same compound?
Answer: Its Activity is 0%.

Question: And the IC50 [10]?
Answer: Its IC50 is greater than 1000 µM.

Question: What about the Activity (Spodoptera litura [11]) of the same compound?
Answer: The Activity was 15%.

Question: What about the Activity (Mamestra brassicae [12]) of the same compound?
Answer: Its Activity is 0%.

Question: And the IC50 (Trehalase)?
Answer: Its IC50 is 0.0049 µM.

Question: And the Activity (Spodoptera litura [13])?
Answer: The Activity was 10%.

Question: What about the Activity (Spodoptera litura [14]) of the same compound?
Answer: Its Activity is 40%.

Question: And the Activity (Mamestra brassicae [15])?
Answer: The Activity was 13%.

Question: And the Activity (Mamestra brassicae [16])?
Answer: Its Activity is 0%.

Question: And the Activity (Spodoptera litura [17])?
Answer: The Activity was 60%.

Question: And the Activity (Spodoptera litura [18])?
Answer: The Activity was 85%.

Question: What about the Activity (Mamestra brassicae [19]) of the same compound?
Answer: The Activity was 0%.

Question: What about the Activity (Mamestra brassicae [20]) of the same compound?
Answer: Its Activity is 20%.

Question: What about the Activity (Spodoptera litura [21]) of the same compound?
Answer: The Activity was 25%.

Question: And the Activity (Mamestra brassicae [22])?
Answer: The Activity was 60%.

Question: What about the Activity (Spodoptera litura [23]) of the same compound?
Answer: Its Activity is 0%.

Question: What about the Activity (Spodoptera litura [24]) of the same compound?
Answer: Its Activity is 58%.

Question: What about the Activity (Spodoptera litura [25]) of the same compound?
Answer: Its Activity is 13%.

Question: What about the LD50 (Spodoptera litura [26]) of the same compound?
Answer: Its LD50 is 2.42 µg.

Question: And the IC50 (Chitinase A1)?
Answer: Its IC50 is greater than 1000 µM.
